Laboratory results as given in patent publication US8586505B2 (SDS Biotech K. K., priority 2009, dated 2013).

Experiments:
[1] = tested on: Pseudoperonospora cubensis; assay: Test of examining control effect on Pseudoperonospora cubensis (potted cucumber plants); format: in vivo; conditions: 96 h, 10% wettable powder adjusted to 125 ppm, 15 ml/pot sprayed on potted cucumber plants one day before spray inoculation, assessed after 1 day wet chamber and 3 days greenhouse, read-out: Determination of control effect (preventive value) on Pseudoperonospora cubensis
How it was run: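 Cucumber plants (Sagamihanjiro, 2.5-leaf stage) sprayed with 125 ppm compound solution from 10% wettable powder, 15 ml/pot. One day later, spray-inoculated with P. cubensis conidia (1.0×10^4 cells/ml), kept 1 day at 21° C wet, then 3 days in greenhouse. Preventive value derived from lesion area relative to untreated plants.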

Tetranychus urticae eggs = assay: Test of examining effect on Tetranychus urticae eggs (ovicidal rate); format: in vivo; conditions: 144 h, 0.4 ml sprayed, unhatched eggs counted six days later, read-out: Determination (ovicidal rate)
Experimental: Thereafter, the released female adults were removed. […] Six days later, the number of unhatched eggs was counted, and an ovicidal rate was calculated.

Sphaerotheca fuliginea = assay: Test of examining control effect on Sphaerotheca fuliginea (potted cucumber plants); format: in vivo; conditions: Podosphaera fuliginea, 336 h; 10% wettable powder adjusted to 125 ppm, 15 ml/pot sprayed on potted cucumber plants one day before spray inoculation; assessed after 14 days in greenhouse; read-out: Determination of control effect (preventive value) on Sphaerotheca fuliginea
How it was run: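 Cucumber plants (Sagamihanjiro, 2nd leaf stage) sprayed with 125 ppm compound (from 10% wettable powder), inoculated one day later with S. fuliginea conidia (1.0×10^5 cells/ml); lesion area scored after 14 days in greenhouse. Preventive value vs untreated; ≥60% high, <60% low control.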

Phytophthora infestans = assay: whole plant or invertebrate; format: in vivo; conditions: in Solanum lycopersicum, 96 h, read-out: Determination of control effect (preventive value)

Row | Compound | pest or weed control at 125 µg/mL [1] [%] | pest or weed control at 250 ppm (Tetranychus urticae eggs) [%] | pest or weed control at 125 µg/mL (Sphaerotheca fuliginea) [%] | pest or weed control at 125 ppm (Phytophthora infestans) [%] | melting point [°C]
1 | CC(CC#Cc1ccc(Cl)cc1C(F)(F)F)Nc1ncnc2ncccc12 (stereo not shown) [compound 384] | 60 to 100 | ≥ 95 | 60 to 100 | 0 to 60 | –
2 | Cc1ncnc(NC(C)CC#Cc2ccc(Cl)cc2C(F)(F)F)c1Cl (stereo not shown) [compound 385] | 60 to 100 | ≥ 95 | 60 to 100 | 0 to 60 | –
3 | C=C(C#CCCNc1ncnc2ccccc12)c1ccccc1 [compound 95] | 60 to 100 | 60 to 80 | 0 to 60 | 0 to 60 | –
4 | CC(CC#Cc1ccc(Cl)cc1C(F)(F)F)Nc1ncnc(C(C)F)c1Cl (stereo not shown) [compound 382] | 60 to 100 | ≥ 95 | 60 to 100 | 0 to 60 | –
5 | CC(CC#Cc1ccc(Cl)cc1C(F)(F)F)Nc1ncnc2c(F)cccc12 (stereo not shown) [compound 348] | 60 to 100 | 80 to 95 | 60 to 100 | 0 to 60 | –
6 | COc1ccc(C#CCCNc2ncnc3sccc23)cc1OC [compound 24] | 60 to 100 | 60 to 80 | 60 to 100 | 0 to 60 | 182 to 184
7 | Cc1ccc(C#CCC(C)Nc2ncnc3sccc23)c(C)c1 (stereo not shown) [compound 259] | 60 to 100 | ≥ 95 | 60 to 100 | 60 to 100 | –
8 | COC(=O)c1cccc(C#CCCNc2ncnc3sccc23)c1 [compound 30] | 60 to 100 | 60 to 80 | 0 to 60 | 0 to 60 | 163 to 166
